# Assay results published in patent US11497788B2, “Supramolecular glycosaminoglycans” (Northwestern University, priority 2015, dated 2022).
# Tests used:
# [1] = tested on: EHBMP-2 (BMP-2 mutated at the N-terminal heparin-binding domain) in C2C12 cells; experiment: ALP activity in C2C12 cells with mutant EHBMP-2; type: cell-based, mouse; conditions: mutant BMP-2 with negligible heparin binding
# Protocol: (§1) C2C12 Cell Culture: C2C12 mouse myoblasts (ATCC) were maintained in Dulbecco's Modified Eagle's Medium with high glucose and L-glutamine (DMEM, ATCC), supplemented with 100 U/mL of penicillin and 100 μg/mL streptomycin (P/S, Life Technologies) and 10% heat inactivated FBS (Life Technologies), and passaged at 80-90% confluence. Media was changed every 2 days. Passages 3 to 8 were used for experiments. Cells were grown at 37° C., 5% CO2 in a humidified atmosphere. Cells were detached following a 3 minute incubation at 37° C. with 0.05% Trypsin-EDTA (Life Technologies), then resuspended in DMEM (10% FBS). Unless stated otherwise, cells were seeded at 75,000 cells/mL (400 μL/well in a 48-well plate), and allowed to attach for a minimum of 3 hours prior to experiments.
# (§2) C2C12 Osteoblast Differentiation: PA samples were thermally annealed as described for Cryo-TEM. PA solutions were spun down, pipetted for homogeneous mixing, then diluted to 1 mM with DMEM (no FBS). […] Cells were cultured for 3 days without changing the media, and osteoblast differentiation was assessed.
# (§3) Alkaline Phosphatase Activity: Alkaline phosphatase (ALP) activity was measured as a marker of osteoblast differentiation (ref. 38; incorporated by reference in its entirety). […] The ALP activity was assessed by reading the OD at 630 nm with Cytation3 microplate reader (BioTek). […]
# noggin = target: T1, noggin (Mus musculus, UniProt P97466); experiment: Noggin inhibition of BMP-2 activity in C2C12 cells; type: cell-based, murine; conditions: during osteoblast differentiation of C2C12
# T1 construct: purchased PeproTech; host or cells: E. coli
# T1 sequence (P97466 with tags, fused parts or gaps): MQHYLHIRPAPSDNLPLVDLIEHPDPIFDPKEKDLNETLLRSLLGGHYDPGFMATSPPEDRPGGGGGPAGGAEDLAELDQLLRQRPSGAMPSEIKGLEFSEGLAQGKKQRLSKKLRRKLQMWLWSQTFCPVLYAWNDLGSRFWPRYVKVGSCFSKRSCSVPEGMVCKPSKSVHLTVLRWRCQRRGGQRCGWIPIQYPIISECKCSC
# Protocol: as §1, §2, §3
# [2] = tested on: FGF-2 signaling in BaF3-FR1C cells; experiment: BaF3-FR1C cell proliferation assay with FGF-2; type: cell-based; conditions: FGF-2 10 ng/ml; 2 days
# Protocol: BaF3-FR1C Cell Proliferation Assay: Upon reception of a frozen vial, BaF3-FR1C cells were cultured and expanded in growth media as recommended (40). The cells were grown in RPMI1640 medium with 2 mM L-glutamine (Thermo Fisher) containing 10% newborn bovine calf serum (Thermo Fisher), 0.5 ng/mL of recombinant mouse IL-3 (Peprotech), 600 μg/mL of G418 sulfate (Thermo Fisher), 50 nM of 2-mercaptoethanol (Thermo Fisher), and 100 unit/mL penicillin and 100 μg/mL streptomycin (Thermo Fisher) at 37° C., 5% CO2. The medium was changed every 2 days. Experiments were performed using with 1-3 week old passaged cells. The BaF3-FR1C cells were first assessed with the CyQUANT direct cell proliferation assay (Thermo Fisher), but no change in fluorescent signal was observed from a 0 to 2 day old culture in growth conditions although the growth was evident under the microscope. […] For assays testing the effect of heparin and glycopeptide nanofibers FGF-2 induced proliferation, 10,000 cells/well were plated in 50 μl of growth media without G148 sulfate and recombinant mouse IL-3 (NT media) in a 96-well plate. We then added a 2×concentrated mixture of FGF-2 with heparin or glycopeptide nanofibers in the same NT media. […] The absorbance was read at 490 nm in a Cytation 3 instrument (BioTek) and cell growth was compared to cells in NT media. […]
# BMP-2 = target: T2, BMP-2 (Homo sapiens, UniProt P12643); experiment: BMP-2 stability assay (ELISA) in C2C12 culture; type: cell-based; conditions: 75 ng/mL BMP-2; 0, 3, 9, 24 h
# T2 construct: purchased Medtronic Sofamor Danek (Minneapolis, Minn.)
# T2 sequence (P12643 283-396): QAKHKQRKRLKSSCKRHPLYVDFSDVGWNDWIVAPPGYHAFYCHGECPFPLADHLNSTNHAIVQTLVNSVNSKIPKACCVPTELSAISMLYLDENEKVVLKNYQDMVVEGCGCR
# Protocol: BMP-2 Stability Assay: C2C12 cells were seeded at 150,000 cells/mL (500 μL/well in a 48-well plate) and incubated overnight. Following, the media was replaced with treatment media (75 ng/mL BMP-2 in the presence/absence of PA 1, PA 4, and monosaccharide 1. The media was collected at 0, 3, 9, and 24 h and stored at −80° C. prior to BMP-2 quantification. In addition, the cell monolayers were lysed at the indicated time with a 100 μL of M-PER Mammalian Protein Extraction Reagent, supplemented with 1×Halt Protease Inhibitor Cocktail, and also stored at −80° C. prior to BMP-2 quantification. The amount of BMP-2 present in the media and cell extracts was assayed using a BMP-2 Quantikine ELISA kit (R&D Systems) according to the manufacturer's specifications.
substance,measurement,setting,value
"3,4,6S-GlcNAc PA (VVAAEEK) [PA 1, glycosylated peptide amphiphile: Alkyne PA click-conjugated with trisulfated monosaccharide 1]",ALP expression using EHBMP-2,[1],minimally affected
same,protection of BMP-2 from noggin antagonist,noggin,successfully protected
same,FGF-2 mediated cell proliferation,[2],improved
same,BMP-2 stability in cell culture media,BMP-2,improved BMP-2 stability
